Test results published in patent US20240400555A1 (Initial Therapeutics, Inc., priority 2023, published 2024).

test system: MV-4-11 cells; assay: Cell Viability Assay in MV-4-11 Cells; type: cell-based; details: Homo sapiens, MV4-11, 72 h
Summary of the method: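 Luminescent ATP read-out (CellTiter-Glo) after 72 h compound treatment of MV-4-11 leukaemia cells (7,000 per well, IMDM plus 10% FBS). Values expressed relative to DMSO control and derived by four-parameter non-linear regression.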

Row | SMILES | IC50 [nM]
1 | C=CCc1ccnc(N(C(=O)c2ccc(Cl)c(CC=C)c2)[C@@H]2CCCNC2)c1 [Example 362, 3-allyl-N-(4-allyl-2-pyridyl)-4-chloro-N-[(3R)-3-piperidyl]benzamide] | 4300
2 | C=C(C)c1csc2ccnc(N(C(=O)c3ccc(-c4cn(C)nn4)cc3F)[C@@H]3CCCNC3)c12 [Example 842, (R)-2-fluoro-4-(1-methyl-1H-1,2,3-triazol-4-yl)-N-(piperidin-3-yl)-N-(3-(prop-1-en-2-yl)thieno[3,2-c]pyridin-4-yl)benzamide] | 270
3 | Cc1cccc2ccnc(N(C(=O)c3ccc(C#N)c(-c4ccc(-c5ccccc5)cc4)c3)[C@@H]3CCCNC3)c12 [Example 327, 4-cyano-N-(8-methyl-1-isoquinolyl)-3-(4-phenylphenyl)-N-[(3R)-3-piperidyl]benzamide] | 2700

same assay, conditions: Homo sapiens, MV4-11, 72 h, MV-4-11 cells, 72 h, Cell-Titer Glo; read-out: IC50

Row | IC50 [nM] | SMILES
4 | 190 | Cc1cccc2ccnc(N(C(=O)c3ccc(Nc4nccc(N5CCCC[C@H]5C)n4)cc3F)[C@@H]3CCCNC3)c12 [Example 959, 2-fluoro-N-(8-methylisoquinolin-1-yl)-4-({4-[(2R)-2-methylpiperidin-1-yl]pyrimidin-2-yl}amino)-N-[(3R)-piperidin-3-yl]benzamide]
5 | 130 | Cn1cc(-c2ccc(C(=O)N(c3nccc4scc(Cl)c34)[C@@H]3CCCNC3)c(F)c2)nn1 [Example 795, (R)—N-(3-chlorothieno[3,2-c]pyridin-4-yl)-2-fluoro-4-(1-methyl-1H-1,2,3-triazol-4-yl)-N-(piperidin-3-yl)benzamide]
6 | 3700 | O=C(c1ccc(Nc2ncccn2)cc1F)N(c1nccc2cc(Nc3ncccn3)ccc12)[C@@H]1CCCNC1 [Example 738, (R)-2-fluoro-N-(piperidin-3-yl)-4-(pyrimidin-2-ylamino)-N-(6-(pyrimidin-2-ylamino)isoquinolin-1-yl)benzamide]
7 | 920 | Cn1cc(-c2ccc(C(=O)N(c3nccc4sc(-c5ccc6c(c5)CNC6=O)cc34)[C@@H]3CCCNC3)c(F)c2)nn1 [Example 538, 2-fluoro-4-(1-methyltriazol-4-yl)-N-[2-(1-oxoisoindolin-5-yl)thieno[3,2-c]pyridin-4-yl]-N-[(3R)-3-piperidyl]benzamide]
8 | 160 | Cc1nnc(-c2ccc(C(=O)N(c3nccc4c(F)ccc(C)c34)[C@@H]3CCCNC3)c(F)c2)s1 [Example 760, (R)-2-fluoro-N-(5-fluoro-8-methylisoquinolin-1-yl)-4-(5-methyl-1,3,4-thiadiazol-2-yl)-N-(piperidin-3-yl)benzamide]
9 | 170 | Cc1nnc(-c2ccc(C(=O)N(c3nccc4scc(C)c34)[C@@H]3CCCNC3)nc2)s1 [Example 810, (R)-5-(5-methyl-1,3,4-thiadiazol-2-yl)-N-(3-methylthieno[3,2-c]pyridin-4-yl)-N-(piperidin-3-yl)picolinamide]
10 | 2000 | Cc1cccc2ccnc(N(C(=O)N3CCCC(CCC(=O)Nc4ccncc4)C3)[C@@H]3CCCNC3)c12 (stereo partly drawn) [Example 497, N-(8-methylisoquinolin-1-yl)-3-(3-oxo-3-(pyridin-4-ylamino)propyl)-N—((R)-piperidin-3-yl)piperidine-1-carboxamide]
11 | 180 | Cc1nnc(-c2ccc(C(=O)N(c3nccc4cccc(C)c34)[C@@H]3CCCNC3)nc2)s1 [Example 783, (R)-5-(5-methyl-1,3,4-thiadiazol-2-yl)-N-(8-methylisoquinolin-1-yl)-N-(piperidin-3-yl)picolinamide]
12 | 2000 | Cc1cccc2ccnc(N(C(=O)c3ccc(Nc4ncccn4)c(Cl)c3)[C@@H]3CCCNC3)c12 [Example 847, (R)-3-chloro-N-(8-methylisoquinolin-1-yl)-N-(piperidin-3-yl)-4-(pyrimidin-2-ylamino)benzamide]
13 | 180 | Cc1ccc(F)c2ccnc(N(C(=O)c3ccc(-c4cn(C)nn4)cc3)[C@@H]3CCCNC3)c12 [Example 656, (R)—N-(5-fluoro-8-methylisoquinolin-1-yl)-4-(1-methyl-1H-1,2,3-triazol-4-yl)-N-(piperidin-3-yl)benzamide]
14 | 110 | NC(=O)Cc1ccc(-c2cc3c(N(C(=O)c4ccc(-n5nnc6cccnc65)cc4F)[C@@H]4CCCNC4)nccc3s2)cc1 [Example 570, N-[2-[4-(2-amino-2-oxo-ethyl)phenyl]thieno[3,2-c]pyridin-4-yl]-2-fluoro-N-[(3R)-3-piperidyl]-4-(triazolo[4,5-b]pyridin-3-yl)benzamide]
15 | 210 | CCc1nnc(-c2ccc(C(=O)N(c3nccc4cc(Cl)cc(C)c34)[C@@H]3CCCNC3)c(F)c2)s1 [Example 700, (R)—N-(6-chloro-8-methylisoquinolin-1-yl)-4-(5-ethyl-1,3,4-thiadiazol-2-yl)-2-fluoro-N-(piperidin-3-yl)benzamide]
16 | 780 | Cc1nnc(-c2ccc(C(=O)N(c3nccc4sc(-c5ccncc5)cc34)[C@@H]3CCCNC3)c(F)c2)s1 [Example 593, 2-fluoro-4-(5-methyl-1,3,4-thiadiazol-2-yl)-N-[(3R)-3-piperidyl]-N-[2-(4-pyridyl)thieno[3,2-c]pyridin-4-yl]benzamide]
17 | 79 | Cc1csc2ccnc(N(C(=O)c3ccc(-c4cn(C)nn4)cc3)[C@@H]3CCCNC3)c12 [Example 799, (R)-4-(1-methyl-1H-1,2,3-triazol-4-yl)-N-(3-methylthieno[3,2-c]pyridin-4-yl)-N-(piperidin-3-yl)benzamide]
18 | 76 | Cc1cccc2ccnc(N(C(=O)c3ccc(-c4cnn(C)c4N)cc3F)[C@@H]3CCCNC3)c12 [Example 388, 4-(5-amino-1-methyl-pyrazol-4-yl)-2-fluoro-N-(8-methyl-1-isoquinolyl)-N-[(3R)-3-piperidyl]benzamide]
19 | 44 | [2H]C([2H])([2H])n1cc(-c2ccc(C(=O)N(c3nccc4cc(F)cc(C)c34)[C@@H]3CCCNC3)c(F)c2)nn1 [Example 891, 2-fluoro-N-(6-fluoro-8-methyl-1-isoquinolyl)-N-[(3R)-3-piperidyl]-4-[1-(trideuteriomethyl)triazol-4-yl]benzamide]
20 | 270 | Cn1cc(-c2ccc(C(=O)N(c3nccc4sc(-c5ccc(CO)s5)cc34)[C@@H]3CCCNC3)c(F)c2)nn1 [Example 481, (R)-2-fluoro-N-(2-(5-(hydroxymethyl)thiophen-2-yl)thieno[3,2-c]pyridin-4-yl)-4-(1-methyl-1H-1,2,3-triazol-4-yl)-N-(piperidin-3-yl)benzamide]
21 | 200 | Cc1cccc2ccnc(N(C(=O)c3ccc(Nc4nccc(NCc5ccncc5)n4)cc3F)[C@@H]3CCCNC3)c12 [Example 697, (R)-2-fluoro-N-(8-methylisoquinolin-1-yl)-N-(piperidin-3-yl)-4-((4-((pyridin-4-ylmethyl)amino)pyrimidin-2-yl)amino)benzamide]
22 | 210 | Cc1cccc2ccnc(N(C(=O)c3ccc(Nc4nccc(Nc5ccncc5)n4)cc3F)[C@@H]3CCCNC3)c12 [Example 683, (R)-2-fluoro-N-(8-methylisoquinolin-1-yl)-N-(piperidin-3-yl)-4-((4-(pyridin-4-ylamino)pyrimidin-2-yl)amino)benzamide]
23 | 800 | Cc1cc(-c2cc3c(N(C(=O)c4ccc(-c5cn(C)nn5)cc4F)[C@@H]4CCCNC4)nccc3s2)ccc1C(N)=O [Example 607, (R)—N-(2-(4-carbamoyl-3-methylphenyl)thieno[3,2-c]pyridin-4-yl)-2-fluoro-4-(1-methyl-1H-1,2,3-triazol-4-yl)-N-(piperidin-3-yl)benzamide]
24 | 2600 | Cc1cccc2ccnc(N(C(=O)c3ccc(-n4nnc5cccnc54)cc3C(F)(F)F)[C@@H]3CCCNC3)c12 [Example 312, (R)-4-(3H-[1,2,3]triazolo[4,5-b]pyridin-3-yl)-N-(8-methylisoquinolin-1-yl)-N-(piperidin-3-yl)-2-(trifluoromethyl)benzamide]
25 | 110 | CCn1cc(-c2ccc(C(=O)N(c3nccc4scc(C)c34)[C@@H]3CCCNC3)cn2)nn1 [Example 885, 6-(1-ethyltriazol-4-yl)-N-(3-methylthieno[3,2-c]pyridin-4-yl)-N-[(3R)-3-piperidyl]pyridine-3-carboxamide]
26 | > 6500 | COCCn1nc(C)cc1-c1ccc(C(=O)N(c2nccc3cc(F)cc(C)c23)[C@@H]2CCCNC2)nc1 [Example 729, (R)—N-(6-fluoro-8-methylisoquinolin-1-yl)-5-(1-(2-methoxyethyl)-3-methyl-1H-pyrazol-5-yl)-N-(piperidin-3-yl)picolinamide]
27 | 420 | Cc1ccc(Cl)c2ccnc(N(C(=O)c3ccc(-c4cn(C)nn4)cc3)[C@@H]3CCCNC3)c12 [Example 855, N-(5-chloro-8-methyl-1-isoquinolyl)-4-(1-methyltriazol-4-yl)-N-[(3R)-3-piperidyl]benzamide]
28 | 510 | Cc1cc(-c2cn(C)nn2)ccc1C(=O)N(c1nccc2cccc(C)c12)C1CCCNC1 (centres unmarked) [Example 705, 2-methyl-4-(1-methyl-1H-1,2,3-triazol-4-yl)-N-(8-methylisoquinolin-1-yl)-N-(piperidin-3-yl)benzamide]
29 | 650 | Cn1cc(-c2ccc(C(=O)N(c3nccc4sc(Cc5cccnc5)cc34)[C@@H]3CCCNC3)c(F)c2)nn1 [Example 488, 2-fluoro-4-(1-methyltriazol-4-yl)-N-[(3R)-3-piperidyl]-N-[2-(3-pyridylmethyl)thieno[3,2-c]pyridin-4-yl]benzamide]
30 | 620 | Cn1cc(-c2ccc(C(=O)N(c3nccc4sc(Cc5ccccc5)cc34)[C@@H]3CCCNC3)c(F)c2)nn1 [Example 487, N-(2-benzylthieno[3,2-c]pyridin-4-yl)-2-fluoro-4-(1-methyltriazol-4-yl)-N-[(3R)-3-piperidyl]benzamide]
31 | 340 | Cn1cc(-c2ccc(C(=O)N(c3nccc4sc(C(=O)c5cccnc5)cc34)[C@@H]3CCCNC3)c(F)c2)nn1 [Example 563]
32 | 86 | Cc1cc(C)c2c(N(C(=O)c3ccc(-c4nc(C)no4)cc3)[C@@H]3CCCNC3)nccc2c1 [Example 915, N-(6,8-dimethyl-1-isoquinolyl)-4-(3-methyl-1,2,4-oxadiazol-5-yl)-N-[(3R)-3-piperidyl] benzamide]
